Measurements from patent US10562893B2, “Benzimidazoles derivatives as Tec kinases family inhibitors” (GB005, Inc., priority 2015, dated 2020).

Legend:
Human PBMCs = test: CD3/CD28 mediated PBMC proliferation assay; type: cell-based; details: proliferation of human PBMCs stimulated with anti-CD3 and anti-CD28, 72 hours, Cell Titer-Glo
Method: Inhibition of cellular ITK was assessed by measuring proliferation of PBMCs following stimulation with anti-CD3 and anti-CD28 antibodies. Individual wells of 96 well tissue culture plates were coated with 50 μL of 5 μg/mL anti-CD3 (OKT3, eBiosciences) for 2 hours at 37° C. Human PBMCs (Stemcell Technologies catalog #70025.3) were plated in 96-well plates at a final concentration of 9.2×10e5 cells/mL in complete media (RPMI, 10% heat inactivated FBS, 55 uM β-mercaptoethanol) and pre-treated with compound curves for 30 minutes at 37° C., 5% CO2. Pre-treated cells plus compounds were transferred to washed anti-CD3 coated plates. Soluble anti-CD28 (CD28.2 eBiosciences) was added to each well at a final concentration of 2 μg/mL. The cells were placed in a humidified 37° C. incubator with 5% CO2 for 72 hours and metabolic viability was measured by quantification of ATP levels with Cell Titer-Glo (Promega catalog # G9242). Controls included unstimulated cells and vehicle alone. EC50 values (50% proliferation in the presence of compound as compared to vehicle treated controls) were calculated from dose response compound curves using GraphPad Prism Software.

[1] = system: Jurkat human acute T cell leukemia cells; test: Jurkat IL-2 release assay; type: cell-based; details: IL-2 release from Jurkat cells stimulated with anti-CD3 and anti-CD28, 48 hours, ELISA
Method: Inhibition of cellular ITK was assessed by measuring release of IL-2 following stimulation with anti-CD3 and anti-CD28 antibodies. Individual wells of 96 well tissue culture plates were coated with 50 μL of 10 μg/mL anti-CD3 (OKT3, eBiosciences) for 2 hours at 37° C. Jurkat human acute T cell leukemia cells (ATCC) were plated in 96-well plates at a final concentration of 9.2×10e5 cells/mL in complete media (RPMI, 10% FBS, 1.5 g/L sodium bicarbonate, 10 mM Hepes, 1 mM sodium pyruvate, 4.5 g/L glucose) and pre-treated with compound curves for 30 minutes at 37° C., 5% CO2. Pre-treated cells plus compounds were transferred to washed anti-CD3 coated plates. Soluble anti-CD28 (CD28.2 eBiosciences) was added to each well at a final concentration of 1 μg/mL. The cells were placed in a humidified 37° C. incubator with 5% CO2 for 48 hours and IL-2 release was measured using a commercial ELISA (BD Bioscience catalog #555190). Controls included unstimulated cells and vehicle alone. EC50 values (50% IL-2 release in the presence of compound as compared to vehicle treated controls) were calculated from dose response compound curves using GraphPad Prism Software.

Structure (SMILES)	EC50 (Human PBMCs) [nM]	EC50 [1] [nM]
C=CC(=O)Nc1cccc(-n2c(NC(=O)c3ccno3)nc3cc(CN4CCOCC4)ccc32)c1 [Compound 76]	10 to 100	< 10
C=CC(=O)N1CCOc2ccc(-n3c(NC(=O)c4ccc(C(F)F)s4)nc4cc(CN[C@@H](C)C(C)(C)C)ccc43)cc21 [Compound 57]	10 to 100	10 to 100
C=CC(=O)Nc1cccc(-n2c(NC(=O)c3ccc(C(F)F)s3)nc3cc(CN[C@H](C)C(C)(C)C)ccc32)c1 [Compound 30]	< 10	10 to 100
C=CC(=O)Nc1cccc(-n2c(NC(=O)c3ccc(OC)cc3)nc3cc(CN[C@@H](C)C(C)(C)C)ccc32)c1 [Compound 24]	> 100	> 100
C=CC(=O)Nc1cccc(-n2c(NC(=O)c3ccc(C(F)F)s3)nc3cc(CN4CCCC4)ccc32)c1 [Compound 32]	< 10	< 10
C=CC(=O)N(C)[C@H]1CC[C@@H](n2c(NC(=O)c3ccc(C(F)F)s3)nc3cc(CN[C@@H](C)C(C)(C)C)ccc32)CC1 [Compound 58]	> 100	
C=CC(=O)Nc1cccc(-n2c(NC(=O)c3ccc(C(F)F)s3)nc3cc(OCc4ccccc4)ccc32)c1 [Compound 79]	> 100	
C=CC(=O)Nc1cccc(-n2c(NC(=O)c3ccc(C(F)F)s3)nc3cc(CNCCCO)ccc32)c1 [Compound 39]	< 10	10 to 100
C=CC(=O)Nc1cccc(-n2c(NC(=O)c3cncnc3)nc3cc(CN[C@@H](C)C(C)(C)C)ccc32)c1 [Compound 41]	10 to 100	< 10
C=CC(=O)Nc1cccc(-n2c(NC(=O)c3cccc(O)c3)nc3cc(CN[C@@H](C)C(C)(C)C)ccc32)c1 [Compound 26]	> 100	10 to 100
C=CC(=O)Nc1cccc(-n2c(NC(=O)c3cnc(C(C)C)s3)nc3cc(CN[C@@H](C)C(C)(C)C)ccc32)c1 [Compound 82]		10 to 100
C=CC(=O)N[C@H]1CC[C@@H](n2c(NC(=O)c3ccc(C#N)cc3)nc3cc(CN[C@@H](C)C(C)(C)C)ccc32)CC1 [Compound 54]	> 100	> 100
CC#CC(=O)Nc1cccc(-n2c(NC(=O)c3ccc(C(F)F)s3)nc3cc(CN[C@@H](C)C(C)(C)C)ccc32)c1 [Compound 72]	> 100	10 to 100
C=CC(=O)Nc1cccc(-n2c(NC(=O)c3cccc(Cl)c3)nc3cc(CN[C@@H](C)C(C)(C)C)ccc32)c1 [Compound 15]	10 to 100	10 to 100
C=CC(=O)Nc1cccc(-n2c(NC(=O)c3ccno3)nc3cc(CN[C@H]4CC[C@H](O)CC4)ccc32)c1 [Compound 74]	> 100	
C=CC(=O)Nc1cccc(-n2c(NC(=O)c3cccs3)nc3cc(CN[C@@H](C)C(C)(C)C)ccc32)c1 [Compound 13]	10 to 100	10 to 100
C=CC(=O)Nc1cccc(-n2c(NC(=O)c3cccc(F)c3)nc3cc(CN[C@@H](C)C(C)(C)C)ccc32)c1 [Compound 7]	10 to 100	10 to 100
C=CC(=O)N[C@H]1C[C@@H](n2c(NC(=O)c3ccc(C(F)F)s3)nc3cc(C(=O)NC4CCCCC4)ccc32)C1 [Compound 70]	> 100	
C=CC(=O)Nc1ccc(F)c(-n2c(NC(=O)c3ccc(C(F)F)s3)nc3cc(CN[C@@H](C)C(C)(C)C)ccc32)c1 [Compound 33]	< 10	< 10
C=CC(=O)Nc1cccc(-n2c(NC(=O)c3ccc(C(F)F)s3)nc3cc(CN4C[C@@H](C)O[C@@H](C)C4)ccc32)c1 [Compound 61]	< 10	
C=CC(=O)Nc1cccc(-n2c(NC(=O)c3ccc(C(F)F)s3)nc3cc(CN4CCC[C@@H]4CO)ccc32)c1 [Compound 44]	< 10	
C=C(F)C(=O)Nc1cccc(-n2c(NC(=O)c3ccc(C(F)F)s3)nc3cc(CN[C@@H](C)C(C)(C)C)ccc32)c1 [Compound 84]	10 to 100	10 to 100

Structure (SMILES)	EC50 (Human PBMCs) [nM]	EC50 [1] [nM]
C=CC(=O)Nc1cccc(-n2c(NC(=O)c3ccc(C(F)F)s3)nc3cc(C(=O)NC4CCCCC4)ccc32)c1 [Compound 53]	10 to 100	
C=CC(=O)Nc1cccc(-n2c(NC(=O)c3ccc(C(F)F)s3)nc3cc(CNC4CCCCC4)ccc32)c1 [Compound 14]	10 to 100	< 10
C=CC(=O)Nc1cccc(-n2c(NC(=O)c3ccc(C(F)F)s3)nc3cc(CN4CCN(CCO)CC4)ccc32)c1 [Compound 59]	< 10	< 10
C=CC(=O)N[C@H]1C[C@@H](n2c(NC(=O)c3ccc(C(F)F)s3)nc3cc(NC(=O)C4CCCCC4)ccc32)C1 [Compound 64]	> 100	
C=CC(=O)N(C)c1cccc(-n2c(NC(=O)c3ccc(C(F)F)s3)nc3cc(CN[C@@H](C)C(C)(C)C)ccc32)c1 [Compound 5]	10 to 100	< 10
C=CC(=O)N[C@H]1C[C@@H](n2c(NC(=O)c3ccc(C(F)F)s3)nc3cc(C(=O)N(C)C4CCCCC4)ccc32)C1 [Compound 65]	> 100	
C=CC(=O)Nc1cccc(-n2c(NC(=O)c3ccc(OCc4ccccc4)cc3)nc3cc(CN[C@@H](C)C(C)(C)C)ccc32)c1 [Compound 37]	> 100	> 100
C=CC(=O)N1CCc2ccc(-n3c(NC(=O)c4ccc(C(F)F)s4)nc4cc(CN[C@@H](C)C(C)(C)C)ccc43)cc21 [Compound 56]	10 to 100	
C=CC(=O)Nc1cccc(-n2c(NC(=O)c3ccc(C(F)F)s3)nc3cc(CO)ccc32)c1 [Compound 69]	10 to 100	
C=CC(=O)Nc1cccc(-n2c(NC(=O)c3ccc(C(F)F)s3)nc3cc(CN4CCC[C@H]4CO)ccc32)c1 [Compound 45]	< 10	
C=CC(=O)Nc1cccc(-n2c(NC(=O)c3ccc(C(F)F)s3)nc3cc(CN[C@H]4CC[C@H](OCCOC)CC4)ccc32)c1 [Compound 51]	< 10	
C=CC(=O)N[C@H]1CC[C@@H](n2c(NC(=O)c3cccnc3)nc3cc(CN[C@@H](C)C(C)(C)C)ccc32)CC1 [Compound 55]	> 100	
C/C=C/C(=O)Nc1cccc(-n2c(NC(=O)c3ccc(C(F)F)s3)nc3cc(CN[C@@H](C)C(C)(C)C)ccc32)c1 [Compound 83]	> 100	
C=CC(=O)Nc1cccc(-n2c(NC(=O)c3ccns3)nc3cc(CN[C@H]4CC[C@H](O)CC4)ccc32)c1 [Compound 75]	> 100	
C=CC(=O)Nc1cccc(-n2c(NC(=O)c3ccc(C(F)F)s3)nc3cc(C(=O)N(C)C4CCCCC4)ccc32)c1 [Compound 48]	10 to 100	
C=CC(=O)Nc1cccc(-n2c(NC(=O)c3cnn(C)c3)nc3cc(CN[C@@H](C)C(C)(C)C)ccc32)c1 [Compound 49]	> 100	
C=CC(=O)Nc1cccc(-n2c(NC(=O)c3ccc(C(F)F)s3)nc3cc(CN[C@H](CO)C(C)(C)C)ccc32)c1 [Compound 47]	< 10	
C=CC(=O)N[C@H]1C[C@@H](n2c(NC(=O)c3ccc(C(F)F)s3)nc3cc(N(C)C(=O)C4CCCCC4)ccc32)C1 [Compound 63]	> 100	
C=CC(=O)Nc1cccc(-n2c(NC(=O)c3ccc(C(F)F)s3)nc3cc(CNCCOCCOC)ccc32)c1 [Compound 46]	10 to 100	
C=CC(=O)Nc1cccc(-n2c(NC(=O)c3ccc(C(F)F)s3)nc3cc(CN[C@H]4CC[C@@H](OCCOC)CC4)ccc32)c1 [Compound 60]	< 10	
C=CC(=O)Nc1cccc(-n2c(NC(=O)c3ccc(C(F)F)s3)nc3cc(CNCCCOCCOCCCNC(C)=O)ccc32)c1 [Compound 66]	10 to 100	
C=CC(=O)N[C@H]1CC[C@@H](n2c(NC(=O)c3ccc(-c4cnco4)s3)nc3cc(CN[C@@H](C)C(C)(C)C)ccc32)CC1 [Compound 71]	10 to 100	
